Broadly, the EC50 is the concentration at which the effect is half-maximal. One may read the IC50 as the midpoint of a concentration-inhibition curve.

SMILES strings stand for the structures. Active and inactive are the calls of the source. Where only a bound is given, the exact number is not on record here.

Assay [1] concerns the target T1, Type-1 angiotensin II receptor (Homo sapiens, UniProt P30556).
T1 sequence (P30556 whole entry): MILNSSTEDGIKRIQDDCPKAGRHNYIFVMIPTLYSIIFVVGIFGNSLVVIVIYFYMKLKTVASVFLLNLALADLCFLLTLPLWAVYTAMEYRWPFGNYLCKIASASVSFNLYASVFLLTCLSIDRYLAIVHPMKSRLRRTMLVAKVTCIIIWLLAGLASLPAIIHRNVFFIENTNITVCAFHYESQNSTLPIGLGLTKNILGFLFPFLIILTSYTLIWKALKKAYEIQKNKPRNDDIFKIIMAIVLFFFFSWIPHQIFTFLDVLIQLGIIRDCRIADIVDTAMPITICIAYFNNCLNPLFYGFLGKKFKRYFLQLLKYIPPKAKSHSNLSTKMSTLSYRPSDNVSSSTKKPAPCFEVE
The assay can be described thus: agonist activity at AGTR1 – cell-based, uHTS hits, selectivity assay for APJ receptor agonist project, dose response (AID 488865).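 Note: beta-arrestin recruitment to AT1 measured by enzyme fragment complementation luminescence.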 Format: functional.

Assay [2] has as its target T2, Runt-related transcription factor 1/Core-binding factor subunit beta (Homo sapiens, UniProt Q01196+Q13951). Kind of assay: disruptors of Runt domain/CBFb-SMMHC interaction – biochemical, FRET, Cerulean-Runt, Venus-CBFb-SMMHC, uHTS, […] (AID 1434). It counts as protein assay.
Assay [3] addresses T2, Runt-related transcription factor 1/Core-binding factor subunit beta. The assay can be described thus: Runt domain/CBFb-SMMHC interaction disruptors – biochemical, TR-FRET (AID 1438). It counts as protein assay.
A further assay has as its target T3, Coagulation factor XII (Homo sapiens, UniProt P00748).
T3 sequence (P00748 whole entry): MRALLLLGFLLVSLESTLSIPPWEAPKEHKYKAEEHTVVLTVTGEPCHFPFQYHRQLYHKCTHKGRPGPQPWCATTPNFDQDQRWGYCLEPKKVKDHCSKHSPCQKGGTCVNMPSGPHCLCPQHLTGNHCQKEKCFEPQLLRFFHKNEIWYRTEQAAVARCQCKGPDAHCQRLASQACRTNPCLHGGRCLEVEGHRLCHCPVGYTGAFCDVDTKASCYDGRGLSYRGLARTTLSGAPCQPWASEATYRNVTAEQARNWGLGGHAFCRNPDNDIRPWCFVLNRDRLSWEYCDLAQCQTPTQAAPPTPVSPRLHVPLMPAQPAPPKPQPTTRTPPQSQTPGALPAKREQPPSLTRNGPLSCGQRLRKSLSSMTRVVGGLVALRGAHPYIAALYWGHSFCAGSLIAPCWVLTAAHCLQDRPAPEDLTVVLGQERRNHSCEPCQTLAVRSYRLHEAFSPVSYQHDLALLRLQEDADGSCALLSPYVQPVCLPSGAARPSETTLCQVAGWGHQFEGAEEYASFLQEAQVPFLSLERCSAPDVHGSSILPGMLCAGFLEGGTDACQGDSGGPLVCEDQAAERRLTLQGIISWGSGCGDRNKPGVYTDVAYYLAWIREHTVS
The assay can be described thus: activated coagulation factor XII inhibitor potency, concentration-effect curve, cell-free (AID 716). It counts as functional.

Assay [4] addresses G-protein coupled receptor 55 (Homo sapiens, UniProt Q9Y2T6). The assay can be described thus: SAR Analysis of Selective Antagonists of GPR55 using an Image-Based Assay - Set 4. [Related pubchem assays (depositor defined):AID2013, AID2026]. It counts as functional.
In assay [5] the target is T4, Cannabinoid receptor 2 (Homo sapiens, UniProt P34972). Kind of assay: SAR analysis of antagonists of the Cannabinoid Receptor 2 using an Image-Based Assay - Set 3. [Related pubchem assays (depositor defined):AID2013, AID2026]. Format: functional.
Assay [6] addresses T4, Cannabinoid receptor 2. The assay can be described thus: SAR analysis of agonists of the Cannabinoid Receptor 2 using an Image-Based Assay - Set 3. [Related pubchem assays (depositor defined):AID2013, AID2026]. Format: functional.
Assay [7] deals with T5, G-protein coupled receptor 35 (Homo sapiens, UniProt Q9HC97). Kind of assay: SAR analysis of Antagonists of the GPR35 Receptor using an Image-Based Assay - Set 6. [Related pubchem assays (depositor defined):AID2013, AID2026]. It counts as functional.
Assay [8] deals with T6, Cannabinoid receptor 1 (Homo sapiens, UniProt P21554). Kind of assay: SAR analysis of agonists of the Cannabinoid Receptor 1 using an Image-Based Assay - Set 4. [Related pubchem assays (depositor defined):AID2013, AID2026]. It counts as functional.
For assay [9], the target named is T6, Cannabinoid receptor 1. The assay can be described thus: SAR analysis of antagonists of the Cannabinoid Receptor 1 using an Image-Based Assay - Set 4. [Related pubchem assays (depositor defined):AID2013, AID2026]. Format: functional.
For assay [10], the target named is T5, G-protein coupled receptor 35. The assay can be described thus: SAR analysis of Agonists of the GPR35 Receptor using an Image-Based Assay - Set 4. [Related pubchem assays (depositor defined):AID2013, AID2026]. It counts as functional.
The target in assay [11] is Signal transducer and activator of transcription 1-alpha/beta (Homo sapiens, UniProt P42224). Kind of assay: STAT3 blockade with qPCR and toxicity readouts – cell-based, STAT1 panel, cytotoxicity, late-stage follow-up, panel member STAT1 Inhibition (AID 2078). In general terms: Real-time PCR tracks product formation cycle by cycle.
Assay [12] deals with Signal transducer and activator of transcription 3 (Homo sapiens, UniProt P40763). The assay can be described thus: STAT3 blockade with qPCR and toxicity readouts – cell-based, STAT1 panel, cytotoxicity, late-stage follow-up, panel member STAT3 Inhibition (AID 2078).
In assay [13] the target is Sphingosine 1-phosphate receptor 1 (Homo sapiens, UniProt P21453). The assay can be described thus: Late-stage fluorescence-based dose-response cell-based assay to identify agonists of the Sphingosine 1-Phosphate Receptor 4 (S1P4): Sphingosine 1-Phosphate Receptor 1 (S1P1) counterscreen assay. [Related pubchem assays (depositor defined):AID1509, AID1523, AID1563, AID1686, AID1701, AID1801, AID463107, AID463225, AID504400]. It counts as functional. (The purpose of a counterscreen is to sort out artefacts and off-target activity.)

In assay [14] the target is Sphingosine 1-phosphate receptor 3 (Homo sapiens, UniProt Q99500). Kind of assay: Late-stage fluorescence-based dose-response cell-based assay to identify agonists of the Sphingosine 1-Phosphate Receptor 4 (S1P4): Sphingosine 1-Phosphate Receptor 3 (S1P3) counterscreen assay. [Related pubchem assays (depositor defined):AID1509, AID1523, AID1563, AID1686, AID1701, AID1801, AID463107, AID463225, AID504400]. It counts as functional.

The target in assay [15] is Sphingosine 1-phosphate receptor 5 (Homo sapiens, UniProt Q9H228). The assay can be described thus: Late-stage fluorescence-based dose-response cell-based assay to identify agonists of the Sphingosine 1-Phosphate Receptor 4 (S1P4): Sphingosine 1-Phosphate Receptor 5 (S1P5) counterscreen assay. [Related pubchem assays (depositor defined):AID1509, AID1523, AID1563, AID1686, AID1701, AID1801, AID463107, AID463225, AID504400]. Format: functional.

The target of assay [16] is Sphingosine 1-phosphate receptor 2 (Homo sapiens, UniProt O95136). Kind of assay: Late-stage fluorescence-based dose-response cell-based assay to identify agonists of the Sphingosine 1-Phosphate Receptor 4 (S1P4): Sphingosine 1-Phosphate Receptor 2 (S1P2) counterscreen assay. [Related pubchem assays (depositor defined):AID1509, AID1523, AID1563, AID1686, AID1701, AID1801, AID463107, AID463225, AID504400]. Format: functional.

For assay [17], the target named is T7, Tyrosine-protein phosphatase non-receptor type 22 (Homo sapiens, UniProt Q9Y2R2).
T7 sequence (Q9Y2R2 whole entry): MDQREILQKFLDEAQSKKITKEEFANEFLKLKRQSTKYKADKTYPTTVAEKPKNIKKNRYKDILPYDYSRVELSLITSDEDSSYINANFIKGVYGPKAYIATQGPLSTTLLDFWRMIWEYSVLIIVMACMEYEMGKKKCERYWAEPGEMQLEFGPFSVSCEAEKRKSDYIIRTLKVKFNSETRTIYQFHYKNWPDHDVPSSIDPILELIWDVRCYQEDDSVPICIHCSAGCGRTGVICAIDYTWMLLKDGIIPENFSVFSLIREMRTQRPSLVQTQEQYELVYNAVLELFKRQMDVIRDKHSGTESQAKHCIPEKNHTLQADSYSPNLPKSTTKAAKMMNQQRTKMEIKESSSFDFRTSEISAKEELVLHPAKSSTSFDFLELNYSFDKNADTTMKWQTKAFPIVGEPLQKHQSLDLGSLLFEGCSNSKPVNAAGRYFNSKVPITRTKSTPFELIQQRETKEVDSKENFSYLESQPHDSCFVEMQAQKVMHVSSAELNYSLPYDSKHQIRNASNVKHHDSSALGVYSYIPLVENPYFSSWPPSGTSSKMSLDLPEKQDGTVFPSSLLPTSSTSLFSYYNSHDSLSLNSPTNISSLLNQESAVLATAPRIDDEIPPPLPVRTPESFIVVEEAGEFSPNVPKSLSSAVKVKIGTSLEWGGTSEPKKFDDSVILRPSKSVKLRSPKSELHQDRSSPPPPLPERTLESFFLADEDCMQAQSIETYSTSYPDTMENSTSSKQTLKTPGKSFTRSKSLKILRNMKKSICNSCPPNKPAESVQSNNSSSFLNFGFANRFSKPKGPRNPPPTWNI
The assay can be described thus: SAR LYP1 Fluorescent Assay using OMFP substrate for In Vitro dose response studies - Set 3. [Related pubchem assays (depositor defined):AID1779, AID1784, AID2140, AID2686]. It counts as functional.

Assay [18] has as its target Tyrosine-protein phosphatase non-receptor type 12 (Homo sapiens, UniProt Q05209). The assay can be described thus: SAR Selectivity Analysis of small molecule inhibitors of PEST using pCAP in a fluorescence assay. [Related pubchem assays (depositor defined):AID1779, AID1784, AID2135]. Format: functional.
In assay [19] the target is T7, Tyrosine-protein phosphatase non-receptor type 22. Kind of assay: inhibition of lymphoid tyrosine phosphatase LYP – biochemical, pCAP fluorogenic substrate, fluorescence, set 3, SAR follow-up (AID 449727). Format: functional.
Assay [20] concerns the target T8, Tyrosine-protein phosphatase non-receptor type 7 (Homo sapiens, UniProt P35236).
T8 sequence (P35236 whole entry): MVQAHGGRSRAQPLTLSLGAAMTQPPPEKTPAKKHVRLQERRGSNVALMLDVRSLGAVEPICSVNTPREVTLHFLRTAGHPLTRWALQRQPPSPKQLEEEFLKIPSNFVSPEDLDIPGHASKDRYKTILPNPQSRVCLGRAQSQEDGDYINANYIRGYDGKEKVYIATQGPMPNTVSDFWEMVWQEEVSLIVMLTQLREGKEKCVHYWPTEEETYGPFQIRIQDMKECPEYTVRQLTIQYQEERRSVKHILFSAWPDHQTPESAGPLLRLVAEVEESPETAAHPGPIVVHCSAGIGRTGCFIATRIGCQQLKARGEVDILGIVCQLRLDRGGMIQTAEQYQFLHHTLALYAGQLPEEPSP
Kind of assay: inhibition of hematopoietic tyrosine phosphatase HePTP – biochemical, set 2, SAR follow-up (AID 449736). It counts as functional.

Assay [21] addresses T8, Tyrosine-protein phosphatase non-receptor type 7. The assay can be described thus: redox-active compounds inhibiting HePTP phosphatase – biochemical, fluorescence, mechanism study (AID 2068). It counts as functional.
For assay [22], the target named is Dual specificity protein phosphatase 3 (Homo sapiens, UniProt P51452). Kind of assay: SAR VHR1 Fluorescent Assay for In Vitro dose response studies Set 2. [Related pubchem assays (depositor defined):AID1654, AID1661, AID1878]. It counts as functional.
Assay [23] concerns the target T9, Dual specificity protein phosphatase 6 (Rattus norvegicus, UniProt Q64346).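 Note: confirmatory in vitro dose-response testing of MKP-3 inhibition; recombinant His-tagged MKP-3 made in E. coli BL21 with OMFP substrate.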
T9 sequence (Q64346 whole entry): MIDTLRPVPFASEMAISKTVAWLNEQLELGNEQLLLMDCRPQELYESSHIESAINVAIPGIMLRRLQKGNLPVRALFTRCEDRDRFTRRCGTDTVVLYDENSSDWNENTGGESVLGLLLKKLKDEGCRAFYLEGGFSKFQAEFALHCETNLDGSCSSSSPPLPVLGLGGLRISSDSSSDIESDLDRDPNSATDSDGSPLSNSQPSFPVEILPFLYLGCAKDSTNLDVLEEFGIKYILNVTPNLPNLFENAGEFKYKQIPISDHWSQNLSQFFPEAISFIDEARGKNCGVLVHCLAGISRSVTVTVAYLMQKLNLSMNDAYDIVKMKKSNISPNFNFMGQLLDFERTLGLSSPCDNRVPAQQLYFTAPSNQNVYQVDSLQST
It counts as functional.

T5 sequence (Q9HC97 whole entry): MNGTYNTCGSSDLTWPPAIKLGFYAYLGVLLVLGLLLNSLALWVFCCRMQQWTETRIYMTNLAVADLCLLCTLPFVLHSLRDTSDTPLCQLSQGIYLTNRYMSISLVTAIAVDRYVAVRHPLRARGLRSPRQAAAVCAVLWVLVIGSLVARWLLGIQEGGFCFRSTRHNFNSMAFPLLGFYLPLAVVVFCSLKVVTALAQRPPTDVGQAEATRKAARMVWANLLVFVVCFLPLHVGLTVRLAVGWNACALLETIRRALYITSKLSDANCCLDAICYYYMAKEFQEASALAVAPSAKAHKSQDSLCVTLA
T2 sequence (Q01196 whole entry, the tested form may be a part): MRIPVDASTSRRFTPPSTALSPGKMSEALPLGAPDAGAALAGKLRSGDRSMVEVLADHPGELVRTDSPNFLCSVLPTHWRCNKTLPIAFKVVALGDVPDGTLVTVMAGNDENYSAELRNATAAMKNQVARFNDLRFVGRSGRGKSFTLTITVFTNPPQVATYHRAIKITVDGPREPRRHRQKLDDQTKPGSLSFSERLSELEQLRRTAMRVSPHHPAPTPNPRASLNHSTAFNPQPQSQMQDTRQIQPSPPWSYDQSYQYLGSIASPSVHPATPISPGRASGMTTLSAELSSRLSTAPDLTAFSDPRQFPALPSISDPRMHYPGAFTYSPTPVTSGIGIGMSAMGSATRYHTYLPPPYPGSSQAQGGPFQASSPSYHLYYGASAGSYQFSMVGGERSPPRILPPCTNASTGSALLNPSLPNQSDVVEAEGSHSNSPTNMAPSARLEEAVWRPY
T2 sequence (Q13951 whole entry, the tested form may be a part): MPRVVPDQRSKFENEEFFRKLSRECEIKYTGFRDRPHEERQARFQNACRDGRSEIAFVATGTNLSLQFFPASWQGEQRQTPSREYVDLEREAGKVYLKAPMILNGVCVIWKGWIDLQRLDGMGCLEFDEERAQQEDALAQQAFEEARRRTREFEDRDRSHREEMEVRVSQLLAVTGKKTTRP
T6 sequence (P21554 whole entry): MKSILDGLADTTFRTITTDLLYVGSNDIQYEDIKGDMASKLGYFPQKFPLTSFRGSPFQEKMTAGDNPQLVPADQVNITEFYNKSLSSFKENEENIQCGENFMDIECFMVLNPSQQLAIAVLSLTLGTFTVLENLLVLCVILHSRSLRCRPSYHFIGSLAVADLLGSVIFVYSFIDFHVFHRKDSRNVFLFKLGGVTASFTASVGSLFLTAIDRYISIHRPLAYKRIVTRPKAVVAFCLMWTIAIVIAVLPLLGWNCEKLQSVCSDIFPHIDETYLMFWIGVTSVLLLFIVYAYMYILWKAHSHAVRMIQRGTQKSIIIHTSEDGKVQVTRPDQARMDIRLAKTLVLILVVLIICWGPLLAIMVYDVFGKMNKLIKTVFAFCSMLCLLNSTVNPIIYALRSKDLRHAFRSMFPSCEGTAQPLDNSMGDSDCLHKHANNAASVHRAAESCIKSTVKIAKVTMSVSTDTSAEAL
T4 sequence (P34972 whole entry): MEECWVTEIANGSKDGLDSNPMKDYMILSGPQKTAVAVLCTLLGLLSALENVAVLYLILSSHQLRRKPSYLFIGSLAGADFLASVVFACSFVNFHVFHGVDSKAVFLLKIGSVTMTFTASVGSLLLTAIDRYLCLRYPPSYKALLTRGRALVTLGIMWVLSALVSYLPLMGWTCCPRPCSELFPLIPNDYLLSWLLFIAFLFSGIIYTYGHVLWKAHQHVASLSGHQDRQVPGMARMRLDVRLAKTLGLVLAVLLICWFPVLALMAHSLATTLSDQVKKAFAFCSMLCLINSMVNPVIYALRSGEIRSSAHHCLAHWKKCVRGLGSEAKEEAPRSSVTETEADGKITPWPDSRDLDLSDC
Dual specificity protein phosphatase 3, sequence (P51452 whole entry): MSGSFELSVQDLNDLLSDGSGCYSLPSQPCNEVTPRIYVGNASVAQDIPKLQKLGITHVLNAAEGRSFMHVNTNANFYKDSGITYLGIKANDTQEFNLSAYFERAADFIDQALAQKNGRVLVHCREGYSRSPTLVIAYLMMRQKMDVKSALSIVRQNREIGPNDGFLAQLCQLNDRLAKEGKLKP
Sphingosine 1-phosphate receptor 5, sequence (Q9H228 whole entry): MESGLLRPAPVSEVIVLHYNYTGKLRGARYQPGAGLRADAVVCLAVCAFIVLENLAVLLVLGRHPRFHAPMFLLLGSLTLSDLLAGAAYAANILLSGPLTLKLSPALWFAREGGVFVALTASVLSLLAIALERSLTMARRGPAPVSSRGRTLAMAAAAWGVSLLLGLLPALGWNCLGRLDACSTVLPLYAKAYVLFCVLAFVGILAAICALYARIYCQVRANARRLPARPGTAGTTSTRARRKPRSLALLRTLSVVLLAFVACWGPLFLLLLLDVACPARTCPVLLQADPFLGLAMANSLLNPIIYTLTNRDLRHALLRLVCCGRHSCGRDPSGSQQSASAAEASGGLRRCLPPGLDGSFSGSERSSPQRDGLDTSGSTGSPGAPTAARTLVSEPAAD
Sphingosine 1-phosphate receptor 2, sequence (O95136 whole entry): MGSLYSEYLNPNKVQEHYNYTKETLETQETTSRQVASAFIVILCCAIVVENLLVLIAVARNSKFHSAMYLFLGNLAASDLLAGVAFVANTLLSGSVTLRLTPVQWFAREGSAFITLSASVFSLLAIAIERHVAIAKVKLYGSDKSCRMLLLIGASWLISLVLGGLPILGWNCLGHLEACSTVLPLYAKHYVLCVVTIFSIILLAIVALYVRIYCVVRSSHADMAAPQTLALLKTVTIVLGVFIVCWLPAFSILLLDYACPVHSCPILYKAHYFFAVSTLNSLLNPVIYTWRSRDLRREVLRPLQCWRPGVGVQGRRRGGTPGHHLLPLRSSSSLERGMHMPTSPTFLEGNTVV
Signal transducer and activator of transcription 3, sequence (P40763 whole entry): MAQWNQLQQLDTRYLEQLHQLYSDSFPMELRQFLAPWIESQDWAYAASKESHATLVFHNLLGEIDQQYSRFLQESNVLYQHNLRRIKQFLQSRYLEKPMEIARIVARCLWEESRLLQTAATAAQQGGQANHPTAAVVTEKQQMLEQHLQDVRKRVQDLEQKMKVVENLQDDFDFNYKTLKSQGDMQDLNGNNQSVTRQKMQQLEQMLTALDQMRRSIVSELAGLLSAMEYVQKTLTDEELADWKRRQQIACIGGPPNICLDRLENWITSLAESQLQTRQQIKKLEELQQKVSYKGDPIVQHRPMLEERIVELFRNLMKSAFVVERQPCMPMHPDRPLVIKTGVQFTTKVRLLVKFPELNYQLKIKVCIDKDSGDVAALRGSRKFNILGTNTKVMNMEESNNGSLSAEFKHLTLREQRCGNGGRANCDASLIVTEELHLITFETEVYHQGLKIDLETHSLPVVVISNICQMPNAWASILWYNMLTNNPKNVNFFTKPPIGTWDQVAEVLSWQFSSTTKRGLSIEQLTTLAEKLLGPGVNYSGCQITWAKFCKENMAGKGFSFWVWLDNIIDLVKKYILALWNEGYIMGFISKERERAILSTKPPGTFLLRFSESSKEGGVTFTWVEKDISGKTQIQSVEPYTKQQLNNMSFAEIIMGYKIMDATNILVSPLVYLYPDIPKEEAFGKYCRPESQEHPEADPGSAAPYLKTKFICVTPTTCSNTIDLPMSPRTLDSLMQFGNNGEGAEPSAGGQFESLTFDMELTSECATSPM
Sphingosine 1-phosphate receptor 3, sequence (Q99500 whole entry): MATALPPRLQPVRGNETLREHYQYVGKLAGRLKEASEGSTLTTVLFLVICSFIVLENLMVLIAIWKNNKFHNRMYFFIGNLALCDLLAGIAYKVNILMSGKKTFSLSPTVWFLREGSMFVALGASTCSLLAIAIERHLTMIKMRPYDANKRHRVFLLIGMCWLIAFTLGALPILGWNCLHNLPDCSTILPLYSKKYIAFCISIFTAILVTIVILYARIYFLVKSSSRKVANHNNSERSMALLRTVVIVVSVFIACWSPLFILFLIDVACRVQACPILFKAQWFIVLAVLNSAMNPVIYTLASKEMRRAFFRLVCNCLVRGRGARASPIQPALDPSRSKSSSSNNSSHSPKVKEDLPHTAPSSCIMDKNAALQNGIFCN
Signal transducer and activator of transcription 1-alpha/beta, sequence (P42224 whole entry): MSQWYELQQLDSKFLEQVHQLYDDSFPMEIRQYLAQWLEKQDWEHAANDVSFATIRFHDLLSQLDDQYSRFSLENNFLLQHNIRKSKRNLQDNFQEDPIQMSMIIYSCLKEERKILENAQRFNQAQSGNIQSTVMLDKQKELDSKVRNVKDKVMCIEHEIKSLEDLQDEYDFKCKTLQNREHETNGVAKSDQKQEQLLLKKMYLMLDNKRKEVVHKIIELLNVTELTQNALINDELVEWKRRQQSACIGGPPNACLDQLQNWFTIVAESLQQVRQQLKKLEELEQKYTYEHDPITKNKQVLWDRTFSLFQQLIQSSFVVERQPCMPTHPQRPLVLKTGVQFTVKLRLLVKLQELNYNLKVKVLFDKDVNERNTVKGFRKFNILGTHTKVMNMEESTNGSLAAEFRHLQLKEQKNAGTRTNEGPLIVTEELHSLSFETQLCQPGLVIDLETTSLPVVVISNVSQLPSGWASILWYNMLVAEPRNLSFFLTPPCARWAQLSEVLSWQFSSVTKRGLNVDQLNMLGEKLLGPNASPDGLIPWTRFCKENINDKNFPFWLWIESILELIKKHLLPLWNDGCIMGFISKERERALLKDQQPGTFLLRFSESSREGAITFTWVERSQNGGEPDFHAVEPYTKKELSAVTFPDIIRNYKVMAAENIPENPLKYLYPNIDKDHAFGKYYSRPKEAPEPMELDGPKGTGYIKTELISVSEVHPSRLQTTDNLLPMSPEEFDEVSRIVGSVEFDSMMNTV
G-protein coupled receptor 55, sequence (Q9Y2T6 whole entry): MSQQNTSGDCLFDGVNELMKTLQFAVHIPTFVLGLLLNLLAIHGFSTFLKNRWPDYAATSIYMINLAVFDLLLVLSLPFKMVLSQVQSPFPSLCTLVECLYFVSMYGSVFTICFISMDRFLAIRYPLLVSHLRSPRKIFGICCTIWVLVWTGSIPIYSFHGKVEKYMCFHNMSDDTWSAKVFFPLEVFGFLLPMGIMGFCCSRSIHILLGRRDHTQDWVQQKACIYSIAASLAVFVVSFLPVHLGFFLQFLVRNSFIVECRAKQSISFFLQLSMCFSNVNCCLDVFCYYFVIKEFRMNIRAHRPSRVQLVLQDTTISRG

Regarding `COc1cc(NC(=S)NC(=O)CCc2ccccc2)cc(OC)c1`, the EC50 in assay [1] is > 100 µM (inactive).

In the case of `CCc1nnc(NC(=O)c2sc3nc4c(cc3c2N)CCCCC4)s1`, the IC50 in assay [2] is 26.5 µM (active); in assay [3] it was 16.6 µM (active).

On to `COc1cc(NC(=O)COc2cccc(OC)c2)cc(OC)c1`, for which, on Coagulation factor XII, the IC50 was > 50 µM (inactive).

`Cc1nc(N2CCN(C(=O)C(C)C)CC2)c2c3c(sc2n1)CCCC3`: the IC50 in assay [4] is 22.7 µM (inactive); at Cannabinoid receptor 2 [5], > 32 µM (inactive); in assay [7] it was > 32 µM (inactive); at Cannabinoid receptor 1 [9] it was 14.7 µM (inactive). Also, the EC50 (at Cannabinoid receptor 2 [6]; at Cannabinoid receptor 1 [8]; in [10]) was > 32 µM (inactive) throughout.

As for `Cc1nc(N2CCC(C(O)c3ccccc3)CC2)c2c3c(sc2n1)CCCC3` (centres undefined), the IC50 in [11] and in assay [12] was > 55.7 µM (inactive) throughout.

For `Cc1ccc(OCCOc2ccc(Cl)cc2Cl)c(Br)n1`, the EC50 in assay [13], in assay [14], in [15] and in [16] was > 50 µM (inactive) throughout.

Turning to `COC(=O)COc1ccc(/C=C2\SC(=Nc3ccc(F)cc3)NC2=O)cc1`, the concentration for half-maximal inhibition (IC50) in assay [17] was 3.49 µM (active); in [18] it was 0.975 µM (active); in [19] it was 3.39 µM (active); in assay [20] it was 1.58 µM (active); in assay [21], 1.07 µM (active); in [22] it was 2.49 µM (active). Also, the IC50 in assay [23] was 50.7 µM (active).
